For assay [1], the system named is mouse cervical cancer cell line U14. Nature of the assay: Mice U14 subcutaneous model, complex combined with chemotherapy. It counts as in vivo, C57 female mice. Particulars: U14 sc. As to the method: C57 female mice aged 6-8 weeks were raised. The mouse cervical cancer cell line U14 cultured to the logarithmic growth phase was prepared into a cell suspension and the cell density was 2×10^7/ml. Experimental animals were subcutaneously injected on the right back, with an injection system of 100 μl per mouse. When the tumor could be palpated (tumor volume is about 4 mm×4 mm×3 mm, i.e. the 5th day after inoculation), the mice were randomly divided into 6 groups, and administrated every 3 days for a total of 8 times according to the grouping and treatment scheme in Table 16. The tumor volume was measured every three days. After administration for 8 times, the mice were killed and subcutaneous tumors were dissected for examination.
Wherein, the administration volume is 100 μl per mouse, DDP is intraperitoneally administrated once a week. DDP is Cisplatin and LP is pMVA-1/DOTAP complex.

In assay [2] the test system is A549 cells. Briefly: Death ratio of A549 cells pretreated with NAC, flow cytometry. It counts as cell-based. As to conditions: pretreated with NAC before pMVA-1/DOTAP complex. On the technique in general: A flow cytometer gives signals particle by particle.
Assay [3] has as its system A549 cells. Nature of the assay: ROS level by H2DCF-DA fluorescence probe, flow cytometry. It counts as cell-based. As to the method: (1) Sample loading: […] (3) […] CM-H2DCFDA fluorescent probe (made by Sigma) was added to the resuspended cells prepared in Step (2), incubated at 37° C. for 0.5 h, washed with PBS and resuspended; (4) The resuspended cells in Step (3) were tested with flow cytometry (Novocyte), and the test results were analyzed by Novoexpress software.

SMILES strings stand for the structures.

Regarding `N.N.[Cl][Pt][Cl]` [Cisplatin], the “lymphocyte infiltration in tumor tissue” value in assay [1] was “less common”. Besides, the “tumor volume vs NS group, DOTAP group and pMVA-1 group” value in assay [1] (Q3d x 8) is reported as “significantly lower”. The tumor growth result in assay [1] (Q3d x 8, Cisplatin ip once a week) was “slow tumor growth”.

In the case of `CC(=O)N[C@@H](CS)C(=O)O` [NAC, N-Acetyl-L-cysteine], the “death ratio of A549 cells” value in the assay with A549 cells [2] is reported as “significantly reduced”. Also, the “intracellular ROS level after NAC pretreatment” value in the assay with A549 cells [3] (A549 pretreated with 5 mM NAC before pMVA-1/DOTAP complex) was “decreased significantly”.

As for `OO` [H2O2], the “intracellular ROS level” value with A549 cells [3] (A549, 3 h, H2O2 at 200 μM, *P<0.05) is on record as “increased significantly”.

(Values after patent publication US11738072B2, “Tumor vaccine and uses thereof” (WestVac Biopharma Co., Ltd., priority 2017, dated 2023).)
